Assay results from US12098148B2, “Therapeutic compounds” (C4X Discovery Limited, priority 2018, dated 2024).
Where two headings read alike, the source gives them in different places.

Tests used:
[1] = biological target: human KEAP1 (N-term, residues 321-609) (Homo sapiens, UniProt Q14145); assay: biochemical;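 note: fluorescence polarization competition assay of Kelch domain binding to NRF2, 12-point 1:3 dilution series from 10 µM, read after 1 h at room temperature, floor 10 nM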
Method: Biological Assays KEAP1 Kelch Fluorescence Polarization (FP) Assay Method
Inhibition of the Kelch domain-NRF2 interaction was determined using a fluorescence polarization-based competition assay in a black 384-well microplate. Compounds were tested at a starting concentration of 10 μM serially diluted 1:3 to generate a 12-point dose response curve on the Biomek FX robot.
After 1 h at room temperature, fluorescence polarization (excitation 470 nm/emission 530 nm) was measured using an Envision plate reader. IC50 values were determined by fitting the data to a four parameter logistic fit using XLfit or XE Runner within ActivityBase.

[2] = test system: NQO1 mRNA in BEAS-2B cells; assay: Beas2B NQO1 mRNA cell based assay; parameters: species or system human; conditions: Homo sapiens, BEAS-2B
Method: Beas2B NQO1 mRNA Cell Based Assay
The up regulation of the NRF2 mediated gene NAD(P)H:quinone acceptor oxidoreductase 1 (NQO1) was measured using the following assay method: BEAS-2B cells (ATCC CRL-9609) were plated in 96-well clear plates at 20,000 cells/well in 75 μL of cell culture media and incubated overnight (37° C., 5% CO2). On day 2, 25 μL of compound or controls were added to the cells for 24 h. On day 3, the medium was aspirated from the plate and the Cells-to-CT™ 1-Step TaqMan® Kit (Ambion A25603) was used to perform expression analysis directly from cultured cells without RNA purification according to the manufacturer's instructions.
Briefly, cells were washed with ice cold PBS and 22.5 μL of room-temperature DNase/Lysis solution was added to the cells and incubated at room temperature for 5 minutes. To stop the reaction, 2.25 μL of stop solution was added to the cell lysate. The samples were diluted 1:5 using nuclease free water and 2.5 μL transferred into the PCR plate. Real-time PCR was performed using the C-1000 Thermal Cycler (Bio-Rad) using human beta actin as the internal control. The cDNA was amplified with a specific primer for NQO1 using the 1-step RT-PCR master mix (Ambion Cells-to-CT™ 1-Step TaqMan® Kit A25603). The primers/probes sets that were used for amplification of cDNA were obtained from TaqMan Gene Expression Assays (Applied Biosystems). The comparative CT (ΔΔCT) relative quantification method was used to calculate the relative mRNA level of the target gene NQO1 as described in the Applied Biosystems Chemistry Guide.

[3] = 24 h, 24 h compound treatment, increase in NQO1 mRNA vs vehicle (0.1% DMSO), read-out: EC50

Chain of human KEAP1 (N-term, residues 321-609) (Q14145 321-609): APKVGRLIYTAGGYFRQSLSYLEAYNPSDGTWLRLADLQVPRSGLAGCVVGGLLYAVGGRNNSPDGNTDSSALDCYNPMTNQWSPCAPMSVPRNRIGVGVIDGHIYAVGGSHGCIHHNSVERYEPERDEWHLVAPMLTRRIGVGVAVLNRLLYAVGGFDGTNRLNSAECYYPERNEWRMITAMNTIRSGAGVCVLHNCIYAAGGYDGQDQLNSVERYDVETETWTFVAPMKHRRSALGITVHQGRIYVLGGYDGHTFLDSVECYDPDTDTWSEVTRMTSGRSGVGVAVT

| IC50 [1] [nM] | SMILES | EC50 [2, 3] [nM] | EC50 ([2]; NQO1 mRNA, on one test occasion, read-out: EC50 on one test occasion (footnote to Table 5)) [nM] |
| --- | --- | --- | --- |
| 5.1 | CC(=O)N1CC[C@H](Oc2ccc(Br)c3c2[C@@H](CN2C(=O)c4ccccc4C2=O)N(C(=O)[C@@H]2CCCC[C@@H]2C(=O)O)CC3)C1 [Example 11, (1S,2R)-2-((S)-8-(((S)-1-Acetylpyrrolidin-3-yl)oxy)-5-bromo-1-((1,3-dioxoisoindolin-2-yl)methyl)-1,2,3,4-tetrahydroisoquinoline-2-carbonyl)cyclohexane-1-carboxylic acid] | 3.5 |  |
| 5.8 | CC(=O)N1CC[C@H](Oc2ccc(Cl)c3c2[C@@H](CN2C(=O)c4ccccc4C2=O)N(C(=O)[C@@H]2CCCC[C@@H]2C(=O)O)CC3)C1 [Example 12, (1S,2R)-2-((S)-8-(((S)-1-Acetylpyrrolidin-3-yl)oxy)-5-chloro-1-((1,3-dioxoisoindolin-2-yl)methyl)-1,2,3,4-tetrahydroisoquinoline-2-carbonyl)cyclohexane-1-carboxylic acid] | 8.6 |  |
| 8.5 | CC(=O)N1CC[C@H](Oc2c(Cl)cc(Cl)c3c2[C@@H](CN2C(=O)c4ccccc4C2=O)N(C(=O)[C@@H]2CCCC[C@@H]2C(=O)O)CC3)C1 [Example 13, (1S,2R)-2-((S)-8-(((S)-1-Acetylpyrrolidin-3-yl)oxy)-5,7-dichloro-1-((1,3-dioxoisoindolin-2-yl)methyl)-1,2,3,4-tetrahydroisoquinoline-2-carbonyl)cyclohexane-1-carboxylic acid] | 530 |  |
| 3.7 | O=C(O)[C@H]1CCCC[C@H]1C(=O)N1CCc2c(Cl)ccc(O[C@H]3CCN(C(=O)c4cncs4)C3)c2[C@H]1CN1C(=O)c2ccccc2C1=O [Example 14, (1S,2R)-2-((S)-5-chloro-1-((1,3-dioxoisoindolin-2-yl)methyl)-8-(((S)-1-(thiazole-5-carbonyl)pyrrolidin-3-yl)oxy)-1,2,3,4-tetrahydroisoquinoline-2-carbonyl)cyclohexane-1-carboxylic acid] | 2.9 |  |
| 9.7 | CC(=O)N1CC[C@H](Oc2ccc(Br)c3c2[C@@H](CN2Cc4ccccc4C2=O)N(C(=O)[C@@H]2CCCC[C@@H]2C(=O)O)CC3)C1 [Example 19, (1S,2R)-2-((S)-8-(((S)-1-acetylpyrrolidin-3-yl)oxy)-5-bromo-1-((1-oxoisoindolin-2-yl)methyl)-1,2,3,4-tetrahydroisoquinoline-2-carbonyl)cyclohexane-1-carboxylic acid] | 130 |  |
| 5.4 | Cc1ncc(C(=O)N2CC[C@H](Oc3ccc(Br)c4c3[C@@H](CN3Cc5ccccc5C3=O)N(C(=O)[C@@H]3CCCC[C@@H]3C(=O)O)CC4)C2)s1 [Example 20, (1S,2R)-2-((S)-5-Bromo-8-(((S)-1-(2-methylthiazole-5-carbonyl)-pyrrolidin-3-yl)oxy)-1-((1-oxoisoindolin-2-yl)methyl)-1,2,3,4-tetrahydroisoquinoline-2-carbonyl)cyclohexane-1-carboxylic acid] | 20 |  |

Second part, the compound before the results:

| SMILES | IC50 [1] [nM] | EC50 [2, 3] [nM] | EC50 ([2]; NQO1 mRNA, on one test occasion, read-out: EC50 on one test occasion (footnote to Table 5)) [nM] |
| --- | --- | --- | --- |
| Cn1nnc2cc(COc3cccc4c3[C@@H](CN3C(=O)c5ccccc5C3=O)N(C(=O)[C@@H]3CCCC[C@@H]3C(=O)O)CC4)ccc21 [Example 8, (1S,2R)-2-((S)-1-((1,3-Dioxoisoindolin-2-yl)methyl)-8-((1-methyl-1H-benzo[d][1,2,3]triazol-5-yl)methoxy)-1,2,3,4-tetrahydroisoquinoline-2-carbonyl)cyclohexane-1-carboxylic acid] | 8.2 | 48 |  |
| Cn1cc(COc2cccc3c2[C@@H](CN2C(=O)c4ccccc4C2=O)N(C(=O)[C@@H]2CCCC[C@@H]2C(=O)O)CC3)nn1 [Example 9, (1S,2R)-2-((S)-1-((1,3-dioxoisoindolin-2-yl)methyl)-8-((1-methyl-1H-1,2,3-triazol-4-yl)methoxy)-1,2,3,4-tetrahydroisoquinoline-2-carbonyl)cyclohexane-1-carboxylic acid] | 7.7 | 24 |  |
| Cn1cnc2cc(COc3cccc4c3[C@@H](CN3C(=O)c5ccccc5C3=O)N(C(=O)[C@@H]3CCCC[C@@H]3C(=O)O)CC4)ccc21 [Example 10, (1S,2R)-2-((S)-1-((1,3-dioxoisoindolin-2-yl)methyl)-8-((1-methyl-1H-benzo[d]imidazol-5-yl)methoxy)-1,2,3,4-tetrahydroisoquinoline-2-carbonyl)cyclohexane-1-carboxylic acid] | 15 | 140 | > 500 |
| O=C(O)[C@H]1CCCC[C@H]1C(=O)N1CCc2cccc(O[C@H]3CCN(C(=O)c4cncs4)C3)c2[C@H]1CN1Cc2ccccc2C1=O [Example 15, (1S,2R)-2-((S)-1-((1-Oxoisoindolin-2-yl)methyl)-8-(((S)-1-(thiazole-5-carbonyl)pyrrolidin-3-yl)oxy)-1,2,3,4-tetrahroisoquinoline-2-carbonyl)cyclohexane-1-carboxylic acid] | 5.1 | 850 |  |
| O=C(O)[C@H]1CCCC[C@H]1C(=O)N1CCc2c(Br)ccc(OCc3nnc4ccccn34)c2[C@H]1CN1Cc2ccccc2C1=O [Example 16, (1S,2R)-2-((S)-8-([1,2,4]triazolo[4,3-a]pyridin-3-ylmethoxy)-5-bromo-1-((1-oxoisoindolin-2-yl)methyl)-1,2,3,4-tetrahydroisoquinoline-2-carbonyl)cyclohexane-1-carboxylic acid] | 8.1 | 2 |  |
| CC(C)n1cc(COc2cccc3c2[C@@H](CN2Cc4ccccc4C2=O)N(C(=O)[C@@H]2CCCC[C@@H]2C(=O)O)CC3)nn1 [Example 17, (1S,2R)-2-((S)-8-((1-Isopropyl-1H-1,2,3-triazol-4-yl)methoxy)-1-((1-oxoisoindolin-2-yl)methyl)-1,2,3,4-tetrahydroisoquinoline-2-carbonyl)cyclohexane-1-carboxylic acid] | 9.7 | 110 |  |
| Cn1nnc2cc(COc3cccc4c3[C@@H](CN3Cc5ccccc5C3=O)N(C(=O)[C@@H]3CCCC[C@@H]3C(=O)O)CC4)ccc21 [Example 18, (1S,2R)-2-((S)-8-((1-methyl-1H-benzo[d][1,2,3]triazol-5-yl)methoxy)-1-((1-oxoisoindolin-2-yl)methyl)-1,2,3,4-tetrahydroisoquinoline-2-carbonyl)cyclohexane-1-carboxylic acid] | 10 | 73 |  |
| Cc1cnc(N2CC[C@H](Oc3ccc(Br)c4c3[C@@H](CN3Cc5ccccc5C3=O)N(C(=O)[C@@H]3CCCC[C@@H]3C(=O)O)CC4)C2)s1 [Example 21, (1S,2R)-2-((S)-5-bromo-8-(((S)-1-(5-methylthiazol-2-yl)pyrrolidin-3-yl)oxy)-1-((1-oxoisoindolin-2-yl)methyl)-1,2,3,4-tetrahydroisoquinoline-2-carbonyl)cyclohexane-1-carboxylic acid] | 4.7 | 7.9 |  |
| Cc1cnnc(N2CC[C@H](Oc3ccc(Br)c4c3[C@@H](CN3Cc5ccccc5C3=O)N(C(=O)[C@@H]3CCCC[C@@H]3C(=O)O)CC4)C2)c1 [Example 22, (1S,2R)-2-((S)-5-bromo-8-(((S)-1-(5-methylpyridazin-3-yl)pyrrolidin-3-yl)oxy)-1-((1-oxoisoindolin-2-yl)methyl)-1,2,3,4-tetrahydroisoquinoline-2-carbonyl)cyclohexane-1-carboxylic acid] | 4.7 | 15 |  |
| Cn1cnnc1COc1ccc(Br)c2c1[C@@H](CN1Cc3ccccc3C1=O)N(C(=O)[C@@H]1CCCC[C@@H]1C(=O)O)CC2 [Example 23, (1S,2R)-2-((S)-5-bromo-8-((4-methyl-4H-1,2,4-triazol-3-yl)methoxy)-1-((1-oxoisoindolin-2-yl)methyl)-1,2,3,4-tetrahydroisoquinoline-2-carbonyl)cyclohexane-1-carboxylic acid] | 10 | 33 |  |
| Cc1nc(COc2ccc(Br)c3c2[C@@H](CN2Cc4ccccc4C2=O)N(C(=O)[C@@H]2CCCC[C@@H]2C(=O)O)CC3)no1 [Example 24, (1S,2R)-2-((S)-5-Bromo-8-((5-methyl-1,2,4-oxadiazol-3-yl)methoxy)-1-((1-oxoisoindolin-2-yl)methyl)-1,2,3,4-tetrahydroisoquinoline-2-carbonyl)cyclohexane-1-carboxylic acid] | 9.1 | 41 |  |
| Cn1cnc(COc2ccc(Br)c3c2[C@@H](CN2Cc4ccccc4C2=O)N(C(=O)[C@@H]2CCCC[C@@H]2C(=O)O)CC3)c1 [Example 25, (1S,2R)-2-((S)-5-Bromo-8-((1-methyl-1H-imidazol-4-yl)methoxy)-1-((1-oxoisoindolin-2-yl)methyl)-1,2,3,4-tetrahydroisoquinoline-2-carbonyl)cyclohexane-1-carboxylic acid 2,2,2-trifluoroacetic acid] | 15 | 150 |  |
| Cc1cc(COc2ccc(Br)c3c2[C@@H](CN2Cc4ccccc4C2=O)N(C(=O)[C@@H]2CCCC[C@@H]2C(=O)O)CC3)no1 [Example 26, (1S,2R)-2-((S)-5-Bromo-8-((5-methylisoxazol-3-yl)methoxy)-1-((1-oxoisoindolin-2-yl)methyl)-1,2,3,4-tetrahydroisoquinoline-2-carbonyl)cyclohexane-1-carboxylic acid] | 14 | 58 |  |
